The record followed here is patent publication US8470867B2, “Sigma receptor inhibitors” (Laboratorios Del Dr. Esteve, S.A., priority 2004, dated 2013).

Counter-ions that a name gives are not always drawn.

The term melting point denotes the temperature of the solid-liquid transition. Usually Ki stands for the dissociation constant of the complex between target and ligand, obtained from inhibition or displacement. As a reminder, the inhibition is the drop in the measured response relative to a control, in per cent.

T1 sequence (Q60492 whole entry): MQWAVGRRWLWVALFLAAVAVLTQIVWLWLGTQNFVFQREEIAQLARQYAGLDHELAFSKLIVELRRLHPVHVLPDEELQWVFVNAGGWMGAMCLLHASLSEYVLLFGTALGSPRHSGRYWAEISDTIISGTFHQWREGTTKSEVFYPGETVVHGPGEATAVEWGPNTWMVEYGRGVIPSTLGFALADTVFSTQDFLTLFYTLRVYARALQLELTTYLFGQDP

System in one data set: not given
Test: not given
Details: not given
As for `COc1ccc(-n2nc(OCCN3CCOCC3)cc2C)cc1.Cl`, the melting point fell in the range of 169 to 173 °C.

The compound `Cl.Clc1ccc(-n2nc(OCCn3ccnc3)cc2-c2ccccc2)cc1Cl` yielded a melting point of 147 to 155 °C.

Take `CCN(CC)CCOc1nn(-c2ccc(Cl)c(Cl)c2)c(C)c1C.Cl`: the melting point lay within 134 to 136 °C.

As for `Cc1c(OCCN2CCCC2)nn(-c2ccc(Cl)c(Cl)c2)c1C.Cl`, the melting point is 146 to 148 °C.

`Cc1c(OCCCN2CCCC2)nn(-c2ccc(Cl)c(Cl)c2)c1C.Cl`: the melting point lay within 155 to 157 °C.

The compound `Cl.Clc1ccc(-n2ccc(OCCCCN3CCOCC3)n2)cc1Cl` gave a melting point of 165 to 169 °C.

For `C[C@@H]1CN(CCCCOc2ccn(-c3ccc(Cl)c(Cl)c3)n2)C[C@H](C)O1.Cl`, the melting point is 149 to 154 °C.

In turn, `Cl.Clc1ccc(-n2ccc(OCCCCN3CCCCC3)n2)cc1Cl` displayed a melting point of 156 to 161 °C.

The compound `Cl.Clc1ccc(-n2ccc(OCCCCN3CCCC3)n2)cc1Cl` displayed a melting point of 181 to 186 °C.

`CCN(CC)CCCCOc1ccn(-c2ccc(Cl)c(Cl)c2)n1.O=C(O)C(=O)O`: the melting point was in the range of 130 to 135 °C.

`COCCN(C)CCCCOc1ccn(-c2ccc(Cl)c(Cl)c2)n1.O=C(O)C(=O)O` returned a melting point of 97 to 100 °C.

Turning to `Clc1ccc(-n2ccc(OCCCCN3CCSCC3)n2)cc1Cl.O=C(O)C(=O)O`, the melting point fell in the range of 175 to 177 °C.

Compound `CC(=O)c1c(OCCN2CCOCC2)nn(-c2ccc(Cl)c(Cl)c2)c1C.O=C(O)C(=O)O` gave a melting point of 188 to 192 °C.

In turn, `CC(=O)c1c(OCCN2CCCC2)nn(-c2ccc(Cl)c(Cl)c2)c1C.O=C(O)C(=O)O` yielded a melting point of 159 to 162 °C.

Compound `CC(=O)c1c(OCCN2CCCCC2)nn(-c2ccc(Cl)c(Cl)c2)c1C.O=C(O)C(=O)O` came in with a melting point of 158 to 161 °C.

`CCN(CC)CCOc1nn(-c2ccc(Cl)c(Cl)c2)c(C)c1C(C)=O.O=C(O)C(=O)O` yielded a melting point of 147 to 149 °C.

For `Clc1ccc(-n2ccc(OCCN3CCOCC3)n2)cc1Cl` (as salt: hydrochloride) [Example 37, 4-{2-[1-(3,4-dichlorophenyl)-1H-pyrazol-3-yloxy]ethyl}morpholine], the melting point is 162 to 166 °C.

Compound `Clc1ccc(-n2ccc(OCCN3CCCC3)n2)cc1Cl` (as salt: hydrochloride) [Example 39, 1-(3,4-dichlorophenyl)-3-[2-(pyrrolidin-1-yl)ethoxy]-1H-pyrazole] came in with a melting point of 172 to 176 °C.

`Clc1ccc(-n2ccc(OCCN3CCCCC3)n2)cc1Cl` (as salt: hydrochloride) [Example 40, 1-{2-[1-(3,4-dichlorophenyl)-1H-pyrazol-3-yloxy]ethyl}piperidine] had a melting point of 172 to 177 °C.

A further data set has as its target T1, σ1-receptor (Cavia porcellus, UniProt Q60492).
T1 construct: guinea pig brains were homogenized; from tissue; host or cells: guinea pig brain membranes
Briefly: Sigma-1 receptor binding, [3H](+)-pentazocine, brain membranes. More on the design: species or system guinea pig.
Details: not given
As to the method: Brain membrane preparation and binding assays for the σ1-receptor were performed as described (DeHaven-Hudkins et al., 1992) with some modifications. In brief, guinea pig brains were homogenized in 10 vols. (w/v) of Tris-HCl 50 mM 0.32 M sucrose, pH 7.4, with a Kinematica Polytron PT 3000 at 15000 r.p.m. for 30 s. The homogenate was centrifuged at 1000 g for […] at 4° C. and the supernatants collected and centrifuged again at 48000 g for 15 min at 4° C. The pellet was resuspended in 10 volumes of Tris-HCl buffer (50 mM, pH 7.4), incubated at 37° C. for 30 min, and centrifuged at 48000 g for 20 min at 4° C. Following this, the pellet was resuspended in fresh Tris-HCl buffer (50 mM, pH 7.4) and stored on ice until use.
Each assay tube contained 10 μL of [^3H](+)-pentazocine (final concentration of 0.5 nM), 900 μL of the tissue suspension to a final assay volume of 1 mL and a final tissue concentration of approximately 30 mg tissue net weight/mL. […] All tubes were incubated at 37° C. for 150 min before termination of the reaction by rapid filtration over Schleicher & Schuell GF 3362 glass fibre filters [previously soaked in a solution of 0.5% polyethylenimine for at least 1 h]. Filters were then washed with four times with 4 mL of cold Tris-HCl buffer (50 mM, pH 7.4). Following addition of scintillation cocktail, the samples were allowed to equilibrate overnight. The amount of bound radioactivity was determined by liquid scintillation spectrometry using a Wallac Winspectral 1414 liquid scintillation counter. Protein concentrations were determined by the method of Lowry et al. (1951).
`Cc1cc(OCCCCN2CCCC2)nn1-c1ccc(Cl)c(Cl)c1` [Example 23, 1-(3,4-Dichlorophenyl)-5-methyl-3-[4-(pyrrolidin-1-yl)butoxy]-1H-pyrazole] displayed a Ki of 4.4 nM. This counts as single-digit nanomolar.

Consider `CCN(CC)CCCCOc1cc(C)n(-c2ccc(Cl)c(Cl)c2)n1` [Example 27, 4-[1-(3,4-Dichlorophenyl)-5-methyl-1H-pyrazol-3-yloxy]-N,N-diethylbutan-1-amine], for which the Ki came out at 4.1 nM.

`CC(C)c1cc(OCCN2CCCCC2)nn1-c1ccc(Cl)c(Cl)c1` [Example 35, 1-{2-[1-(3,4-Dichlorophenyl)-5-isopropyl-4H-pyrazol-3-yloxy]ethyl}piperidine] gave an inhibitory constant (Ki) of 8.6 nM.

Staying with this data set, now noted: 10^−7 M.
Regarding `CCN(CC)CCOc1cc(C)n(-c2ccc(Cl)c(Cl)c2)n1` [Example 2, 2-[1-(3,4-Dichlorophenyl)-5-methyl-1H-pyrazol-3-yloxy]-N,N-diethylethanamine hydrochloride], the inhibition at 0.1 µM turned out to be 95.1%.

As to `Cc1cc(OCCN2CCN(C)CC2)nn1-c1ccc(Cl)c(Cl)c1` [Example 8, 1-{2-[1-(3,4-Dichlorophenyl)-5-methyl-1H-pyrazol-3-yloxy]ethyl}-4-methylpiperazine], the inhibition at 0.1 µM was 94.5%.

Take `CCOC(=O)N1CCN(CCOc2cc(C)n(-c3ccc(Cl)c(Cl)c3)n2)CC1` [Example 9, Ethyl 4-{2-[1-(3,4-dichlorophenyl)-5-methyl-1H-pyrazol-3-yloxy]ethyl}piperazine carboxylate]: the inhibition at 0.1 µM worked out at 99.5%.

For the compound `COc1ccc(-n2nc(OCCCN3CCCC3)cc2C)cc1` [Example 13, 1-(4-Methoxyphenyl)-5-methyl-3-[3-(pyrrolidin-1-yl)propoxy]-1H-pyrazole], the inhibition at 0.1 µM was 50.9%.

Consider `COc1ccc(-n2nc(OCCN3CCCCC3)cc2C)cc1` [Example 14, 1-[2-(1-(4-Methoxyphenyl)-5-methyl-1H-pyrazol-3-yloxy)ethyl]piperidine], for which the inhibition at 0.1 µM came out at 48.9%.

For `Clc1ccc(-n2nc(OCCCN3CCCC3)cc2-c2ccccc2)cc1Cl` [Example 18, 1-(3,4-Dichlorophenyl)-5-phenyl-3-[3-(pyrrolidin-1-yl)propoxy]-1H-pyrazole], the inhibition at 0.1 µM stood at 58.6%.

Consider `Clc1ccc(-n2nc(OCCN3CCCCC3)cc2-c2ccccc2)cc1Cl` [Example 19, 1-{2-[1-(3,4-Dichlorophenyl)-5-phenyl-1H-pyrazol-3-yloxy]ethyl}piperidine], for which the inhibition at 0.1 µM amounted to 80.1%.

As for `Cc1cc(OCCCCN2CCCC2)nn1-c1ccc(Cl)c(Cl)c1` [Example 23, 1-(3,4-Dichlorophenyl)-5-methyl-3-[4-(pyrrolidin-1-yl)butoxy]-1H-pyrazole], the inhibition at 0.1 µM was 96.4%.

Turning to `CCN(CC)CCCCOc1cc(C)n(-c2ccc(Cl)c(Cl)c2)n1` [Example 27, 4-[1-(3,4-Dichlorophenyl)-5-methyl-1H-pyrazol-3-yloxy]-N,N-diethylbutan-1-amine], the inhibition at 0.1 µM was 99.2%.

Consider `Cc1cc(OCCCCN2CCc3ccccc3C2)nn1-c1ccc(Cl)c(Cl)c1` [Example 30, 2-{4-[1-(3,4-dichlorophenyl)-5-methyl-1H-pyrazol-3-yloxy]butyl}-1,2,3,4-tetrahydroisoquinoline], for which the inhibition at 0.1 µM stood at 83%.

On to `CCN(CC)CCOc1cc(C(C)C)n(-c2ccc(Cl)c(Cl)c2)n1` [Example 32, 2-[1-(3,4-Dichlorophenyl)-5-isopropyl-1H-pyrazol-3-yloxy]-N,N-diethylethanamine], for which the inhibition at 0.1 µM came to 72.7%.

For `CC(C)c1cc(OCCN2CCCCC2)nn1-c1ccc(Cl)c(Cl)c1` [Example 35, 1-{2-[1-(3,4-Dichlorophenyl)-5-isopropyl-4H-pyrazol-3-yloxy]ethyl}piperidine], the inhibition at 0.1 µM was determined as 102%.

Regarding `Clc1ccc(-n2ccc(OCCN3CCOCC3)n2)cc1Cl` [Example 37, 4-{2-[1-(3,4-dichlorophenyl)-1H-pyrazol-3-yloxy]ethyl}morpholine], the inhibition at 0.1 µM was found to be 108%.

In the case of `CCN(CC)CCOc1ccn(-c2ccc(Cl)c(Cl)c2)n1` [Example 38, 2-[1-(3,4-dichlorophenyl)-1H-pyrazol-3-yloxy]N,N-diethylethanamine], the inhibition at 0.1 µM stood at 108%.

Consider `Clc1ccc(-n2ccc(OCCN3CCCC3)n2)cc1Cl` [Example 39, 1-(3,4-dichlorophenyl)-3-[2-(pyrrolidin-1-yl)ethoxy]-1H-pyrazole], for which the inhibition at 0.1 µM came out at 110%.

Take `Clc1ccc(-n2ccc(OCCN3CCCCC3)n2)cc1Cl` [Example 40, 1-{2-[1-(3,4-dichlorophenyl)-1H-pyrazol-3-yloxy]ethyl}piperidine]: the inhibition at 0.1 µM turned out to be 110%.

With `Cc1cc(OCCN2CCOCC2)nn1-c1ccc2ccccc2c1` [Example 61, 4-{2-[5-Methyl-1-(naphthalen-2-yl)-1H-pyrazol-3-yloxy]ethyl}morpholine], the “% Binding σ1” value was found to be 93.6%.

As to `CCN(CC)CCOc1cc(C)n(-c2ccc3ccccc3c2)n1` [Example 62, N,N-Diethyl-2-[5-methyl-1-(naphthalen-2-yl)-1H-pyrazol-3-yloxy]ethanamine], the inhibition at 0.1 µM came to 69.2%.
